Molecules are shown by their SMILES. Where “and” joins values, the source holds several entries; their conditions need not be identical. Equal values may be shown once. Toxic doses and inconclusive results are not listed.

This assay concerns mice, LPC-1 plasma cell tumor ip, median survival T/C. The experiment in a line: NCI In Vivo Anticancer Drug Screen. Data for tumor model Lieberman Plasma Cell No. 1 (LPC-1) (intraperitoneal) in unknown mice. To be noted: endpoint: median survival time, higher = longer survival. The method, then:
The antitumor activity of compounds was measured in mice bearing transplantable tumors. Survival or tumor size were measured and the results are expressed as the measurement made in the treated group (T) divided by the measurement made in the vehicle treated control group (C). The tumor model used in this assay is Lieberman Plasma Cell No. 1 (LPC-1) (intraperitoneal) in unknown mice

As to `N[C@@H](Cc1ccc(N(CCCl)CCCl)cc1)C(=O)O`, the T/C reads like this: (dose: 0.57 mg/kg/injection, schedule: Q01DX024 (oral), vehicle: carboxymethylcellulose (CMC)) 92 % of control; (dose: 0.64 mg/kg/injection, schedule: Q01DX028 (sc), vehicle: saline) 170 % of control; (dose: 0.65 mg/kg/injection, schedule: Q## X024 (sc), vehicle: saline) 96 % of control; (dose: 1.07 mg/kg/injection, schedule: Q01DX028 (sc), vehicle: saline) 107 % of control; (dose: 1.08 mg/kg/injection, schedule: Q01DX008 (sc), vehicle: saline) 96 % of control; (dose: 1.08 mg/kg/injection, schedule: Q01DX009 (sc), vehicle: saline) 103 % of control. Also, the T/C (dose: 1.08 mg/kg/injection, schedule: Q## X024 (sc), vehicle: saline) was 96 % of control; the T/C (dose: 1.15 mg/kg/injection, schedule: Q01DX024 (oral), vehicle: carboxymethylcellulose (CMC)) was 100 % of control; the T/C (dose: 1.7 mg/kg/injection, schedule: Q01DX028 (sc), vehicle: saline) is 182 % of control; the T/C (dose: 1.8 mg/kg/injection, schedule: Q01DX005 (sc), vehicle: saline) is 381 % of control; the T/C (dose: 1.8 mg/kg/injection, schedule: Q01DX008 (sc), vehicle: saline) was 100 % of control; the T/C (dose: 1.8 mg/kg/injection, schedule: Q01DX009 (sc), vehicle: saline) is 103 % of control. The T/C (dose: 1.8 mg/kg/injection, schedule: Q## X024 (sc), vehicle: saline) is 103 % of control; the T/C (dose: 1.87 mg/kg/injection, schedule: Q01DX005 (oral), vehicle: carboxymethylcellulose (CMC)) was 88 % of control; the T/C (dose: 1.87 mg/kg/injection, schedule: Q## X015 (oral), vehicle: carboxymethylcellulose (CMC)) was 190 % of control; the T/C (dose: 1.9 mg/kg/injection, schedule: Q01DX005 (ip), vehicle: saline) is 161 % of control; the T/C (dose: 1.9 mg/kg/injection, schedule: Q## X015 (ip), vehicle: saline) was 105 % of control; the T/C (dose: 2.3 mg/kg/injection, schedule: Q01DX024 (oral), vehicle: carboxymethylcellulose (CMC)) is 91 % of control and 102 % of control. The T/C is 155 % of control (dose: 2.9 mg/kg/injection, schedule: Q01DX028 (sc), vehicle: saline); 96 % of control (dose: 3.0 mg/kg/injection, schedule: Q01DX008 (sc), vehicle: saline); 100 % of control (dose: 3.0 mg/kg/injection, schedule: Q01DX009 (sc), vehicle: saline); 164 % of control and 167 % of control and 152 % of control (dose: 3.0 mg/kg/injection, schedule: Q01DX028 (sc), vehicle: saline); 109 % of control (dose: 3.0 mg/kg/injection, schedule: Q04DX003 (sc), vehicle: saline); 96 % of control (dose: 3.0 mg/kg/injection, schedule: Q## X024 (sc), vehicle: saline). Moreover, the T/C reads like this: (dose: 3.75 mg/kg/injection, schedule: Q01DX005 (oral), vehicle: carboxymethylcellulose (CMC)) 100 % of control and 104 % of control; (dose: 3.75 mg/kg/injection, schedule: Q## X010 (oral), vehicle: carboxymethylcellulose (CMC)) 95 % of control and 97 % of control; (dose: 3.75 mg/kg/injection, schedule: Q## X015 (oral), vehicle: carboxymethylcellulose (CMC)) 214 % of control and 117 % of control; (dose: 3.8 mg/kg/injection, schedule: Q## X010 (ip), vehicle: saline) 214 % of control; (dose: 3.8 mg/kg/injection, schedule: Q## X015 (ip), vehicle: saline) 202 % of control; (dose: 4.0 mg/kg/injection, schedule: Q01DX028 (sc), vehicle: methylcellulose (MC)) 97 % of control. For the same compound, the T/C (dose: 4.5 mg/kg/injection, schedule: Q01DX024 (oral), vehicle: carboxymethylcellulose (CMC)) is 88 % of control and 102 % of control; the T/C (dose: 5.0 mg/kg/injection, schedule: Q01DX008 (sc), vehicle: saline) is 96 % of control; the T/C (dose: 5.0 mg/kg/injection, schedule: Q01DX009 (sc), vehicle: saline) is 103 % of control; the T/C (dose: 5.0 mg/kg/injection, schedule: Q01DX024 (ip), vehicle: saline) was 111 % of control; the T/C (dose: 5.0 mg/kg/injection, schedule: Q01DX028 (sc), vehicle: saline) is 104 % of control and 105 % of control; the T/C (dose: 5.0 mg/kg/injection, schedule: Q04DX003 (sc), vehicle: saline) was 166 % of control. The T/C by setting is: (dose: 5.0 mg/kg/injection, schedule: Q## X024 (sc), vehicle: saline) 96 % of control; (dose: 7.5 mg/kg/injection, schedule: Q01DX005 (oral), vehicle: carboxymethylcellulose (CMC)) 94 % of control and 104 % of control; (dose: 7.5 mg/kg/injection, schedule: Q## X010 (oral), vehicle: carboxymethylcellulose (CMC)) 91 % of control and 95 % of control; (dose: 7.5 mg/kg/injection, schedule: Q## X015 (ip), vehicle: saline) 108 % of control; (dose: 8.4 mg/kg/injection, schedule: Q01DX005 (sc), vehicle: saline) 96 % of control; (dose: 8.4 mg/kg/injection, schedule: Q01DX008 (sc), vehicle: saline) 96 % of control. The T/C by setting is: (dose: 8.4 mg/kg/injection, schedule: Q01DX009 (sc), vehicle: saline) 100 % of control; (dose: 8.4 mg/kg/injection, schedule: Q01DX028 (sc), vehicle: saline) 100 % of control; (dose: 8.4 mg/kg/injection, schedule: Q04DX003 (sc), vehicle: saline) 118 % of control; (dose: 9.0 mg/kg/injection, schedule: Q01DX024 (oral), vehicle: carboxymethylcellulose (CMC)) 88 % of control and 90 % of control; (dose: 10.0 mg/kg/injection, schedule: Q01DX024 (ip), vehicle: saline) 94 % of control; (dose: 14.0 mg/kg/injection, schedule: Q04DX003 (sc), vehicle: saline) 109 % of control. The T/C (dose: 15.0 mg/kg/injection, schedule: Q01DX005 (ip), vehicle: saline) was 91 % of control; the T/C (dose: 15.0 mg/kg/injection, schedule: Q## X010 (ip), vehicle: saline) is 88 % of control; the T/C (dose: 15.0 mg/kg/injection, schedule: Q## X010 (oral), vehicle: carboxymethylcellulose (CMC)) was 97 % of control; the T/C (dose: 15.0 mg/kg/injection, schedule: Q## X015 (ip), vehicle: saline) is 88 % of control; the T/C (dose: 15.0 mg/kg/injection, schedule: Q## X015 (oral), vehicle: carboxymethylcellulose (CMC)) was 88 % of control and 90 % of control; the T/C (dose: 18.0 mg/kg/injection, schedule: Q01DX001 (ip), vehicle: saline) was 123 % of control. Besides, the T/C is 90 % of control (dose: 19.0 mg/kg/injection, schedule: Q01DX001 (oral), vehicle: carboxymethylcellulose (CMC)); 103 % of control (dose: 23.0 mg/kg/injection, schedule: Q04DX003 (sc), vehicle: saline); 88 % of control and 90 % of control (dose: 30.0 mg/kg/injection, schedule: Q01DX005 (oral), vehicle: carboxymethylcellulose (CMC)); 90 % of control (dose: 30.0 mg/kg/injection, schedule: Q## X015 (oral), vehicle: carboxymethylcellulose (CMC)); 94 % of control (dose: 37.5 mg/kg/injection, schedule: Q01DX001 (ip), vehicle: saline); 96 % of control (dose: 39.0 mg/kg/injection, schedule: Q01DX001 (sc), vehicle: saline). Moreover, the T/C reads like this: (dose: 60.0 mg/kg/injection, schedule: Q01DX005 (oral), vehicle: carboxymethylcellulose (CMC)) 88 % of control; (dose: 65.0 mg/kg/injection, schedule: Q01DX001 (ip), vehicle: saline) 88 % of control; (dose: 65.0 mg/kg/injection, schedule: Q01DX001 (sc), vehicle: saline) 96 % of control.

As for `CCOC(=O)c1c[nH]c2ccc(N(CCCl)CCCl)cc12`, the T/C is, setting by setting: (dose: 23.0 mg/kg/injection, schedule: Q01DX028 (sc), vehicle: carboxymethylcellulose (CMC)) 112 % of control; (dose: 39.0 mg/kg/injection, schedule: Q01DX028 (sc), vehicle: carboxymethylcellulose (CMC)) 110 % of control; (dose: 65.0 mg/kg/injection, schedule: Q01DX028 (sc), vehicle: carboxymethylcellulose (CMC)) 89 % of control; (dose: 108.0 mg/kg/injection, schedule: Q01DX015 (sc), vehicle: carboxymethylcellulose (CMC)) 97 % of control; (dose: 108.0 mg/kg/injection, schedule: Q01DX028 (sc), vehicle: carboxymethylcellulose (CMC)) 87 % of control.

Turning to `COc1cc2oc(=O)ccc2cc1C(=O)CC(C)C`, the T/C runs as follows: (dose: 125.0 mg/kg/injection, schedule: Q01DX028 (sc), vehicle: carboxymethylcellulose (CMC)) 102 % of control; (dose: 250.0 mg/kg/injection, schedule: Q01DX028 (sc), vehicle: carboxymethylcellulose (CMC)) 100 % of control; (dose: 500.0 mg/kg/injection, schedule: Q01DX028 (sc), vehicle: carboxymethylcellulose (CMC)) 100 % of control.

The values are drawn from PubChem BioAssay AID344 (DTP/NCI, 2004).
